Measured values: patent publication US20250109127A1, “METHODS OF USE OF PHENOXYPROPYLAMINE COMPOUNDS TO TREAT DEPRESSION” (Minerva Neurosciences, Inc., priority 2013, published 2025)
Values joined by “and” are separate entries in the source; they are usually repeats but may differ in a detail not shown here. Identical values can stand only once.

Test system: DOPAC release in the rat prefrontal cortex
Test: Microdialysis: DOPAC release in prefrontal cortex after I.P. administration
Assay type: in vivo
Settings: Citalopram 10 mg/kg I.P.
Description: The aim of the study was to evaluate, using microdialysis, the effects of an intraperitoneal (I.P.) administration in rats of three different doses of SON-117 on dopamine and its metabolites, serotonin and its metabolite (5-HIAA), and norepinephrine levels in prefrontal cortex.
Thirty-two adult male Wistar rats were used for the whole study (4 groups of eight animals planned for the study, Table 1).
Surgery was performed on rats weighing about 300 g at the beginning of the experiments. Rats were anaesthetized with Ketamine (50 mg/kg) & Xylazine (15 mg/kg) by intramuscular administration. The animals were placed in a stereotaxic apparatus in the flat-skull position at a constant setting of −3.3 mm between ear bars and the incisor bar. The animals were treated with a local anesthesic (xylocaine 1%, Astra Zeneca) and an analgesic (Temgesic, from Schering Plough, 0.05 mg/kg, s.c.). A rostrocaudal midline incision was made with a lancet to expose the dorsal skull surface. The “stereotaxic zero” was defined by the Bregma in accordance with Paxinos and Watson's atlas (1986). A hole was drilled in the skull with a drill and the meninges were pierced with a sterile needle to implant a CMA12 guide cannula which later received the dialysis probe.
Coordinates used for implanting guide cannula in prefrontal cortex from Bregma were anteroposterior 3.7 mm, mediolateral 0.8 mm, and dorsoventral −2 mm (top of the probe was at −5 mm). The guide cannula was fixed to the skull with two stainless steel screws (1.88 mm outside diameter) anchored. An application of dental cement was added. A plastic collar allowed each animal to be tethered to a Swivel assembly of the CMA 120 awake animal system. Following surgery, rats were kept in individual cages and allowed to recover for a minimum of 3-5 days before the experimentation. The rats were handled and put in plastic bowl for 10 min at least every day to habituate the animals to their new environment for the dialysis. An I.P. administration with saline was also performed every day.
Dialysis probes (CMA12/3 mm, membrane, 20 kD cut-off, Carnegie Medicine, Stockholm, Sweden), were carefully washed before inserting into the guide cannula. The wash was performed with the artificial cerebrospinal fluid (aCSF) medium (NaCl 147 mM, KCl 2.7 mM, CaCl2 1.2 mM, MgCl2 0.85 mM) at room temperature. The dialysis system was then equilibrated at 20° C. at a perfusion rate of 1 μl/min with a Carnegie pump (CMA100). All catheters (FEP tubing, internal volume of 1.2 μl/10 cm, and tubing adaptors) used for microdialysis were treated in the same conditions.
The probes duly prepared were inserted into the guide cannula and the CMA120 Swivel assembly secured to the animal using a plastic collar. Flow through the dialysis probe with aCSF was maintained at a rate of 1 μl/min during the whole experimentation. The first four fractions (corresponding to 2 hours) were discarded to avoid the effects of parenchymal disturbance and to ensure that an approximate steady-state level was reached. Fractions were then collected over a period of 8.5 h during which time the animals remained quiet. The dialysates were automatically collected with an autosampler (microfraction collector CMA 140, Carnegie Medicin) and stored at −80° C. until analysis. […] Perfusion was then maintained for 7 hours with aCSF. The dialysates (30 μl) were collected into 300 μl vials, transferred into dry ice and then kept frozen (−80° C.) until analysis. Frozen samples were shipped to a partner for analysis. At the end of the microdialysis study, a PBS with colored ink was perfused through the probe in order to visualize the dialyzed area.
Catecholamine assay: Concentrations of dopamine, DOPAC, HVA, 5-HIAA, 5-HT, and norepinephrin were determined for each sample by HPLC coupled with electrochemical detection.

CN(C)CCCC1(c2ccc(F)cc2)OCc2cc(C#N)ccc21 (centres unmarked) [Citalopram, citalopram, reference compound]
DOPAC in dialysate, MEAN (T0-T30 min): 92.52 % of respective basal
DOPAC in dialysate, MEAN (T30-T1 h): 101.61 % of respective basal
DOPAC in dialysate, individual animals (T30-T1 h): 108.24 % of respective basal and 101.84 % of respective basal and 110.81 % of respective basal and 140.94 % of respective basal and 90.86 % of respective basal and 86.64 % of respective basal and 74.29 % of respective basal and 104.04 % of respective basal
DOPAC in dialysate, MEAN (T1 h 30-T2 h): 103.07 % of respective basal
DOPAC in dialysate, individual animals (T1 h 30-T2 h): 97.22 % of respective basal and 94.96 % of respective basal and 95.81 % of respective basal and 121.29 % of respective basal and 99.84 % of respective basal and 90.48 % of respective basal and 98.93 % of respective basal and 130.18 % of respective basal
DOPAC in dialysate, MEAN (T1 h-T1 h 30): 102.71 % of respective basal
DOPAC in dialysate, individual animals (T1 h-T1 h 30): 108.8 % of respective basal and 86.27 % of respective basal and 95.17 % of respective basal and 138.08 % of respective basal and 88.43 % of respective basal and 88.97 % of respective basal and 77.44 % of respective basal and 143.24 % of respective basal
DOPAC in dialysate, MEAN (T2 h 30-T3 h): 86.26 % of respective basal
DOPAC in dialysate, individual animals (T2 h 30-T3 h): 68.83 % of respective basal and 76.04 % of respective basal and 88.98 % of respective basal and 94.72 % of respective basal and 88.97 % of respective basal and 81.12 % of respective basal and 86.11 % of respective basal and 108.52 % of respective basal
DOPAC in dialysate, MEAN (T2 h-T2 h 30): 91.70 % of respective basal
DOPAC in dialysate, individual animals (T2 h-T2 h 30): 100.58 % of respective basal and 87.15 % of respective basal and 91.10 % of respective basal and 94.66 % of respective basal and 82.72 % of respective basal and 76.32 % of respective basal and 84.28 % of respective basal and 120.05 % of respective basal
DOPAC in dialysate, MEAN (T3 h 30-T4 h): 92.94 % of respective basal
DOPAC in dialysate, individual animals (T3 h 30-T4 h): 98.62 % of respective basal and 88.8 % of respective basal and 84.72 % of respective basal and 92.54 % of respective basal and 81.68 % of respective basal and 80.31 % of respective basal and 88.84 % of respective basal and 131.20 % of respective basal
DOPAC in dialysate, MEAN (T3 h-T3 h 30): 89.35 % of respective basal
DOPAC in dialysate, individual animals (T3 h-T3 h 30): 108.36 % of respective basal and 74.94 % of respective basal and 89.42 % of respective basal and 83.63 % of respective basal and 84.95 % of respective basal and 77.32 % of respective basal and 85.84 % of respective basal and 113.17 % of respective basal
DOPAC in dialysate, MEAN (T4 h 30-T5 h): 97.96 % of respective basal
DOPAC in dialysate, individual animals (T4 h 30-T5 h): 118.57 % of respective basal and 89.81 % of respective basal and 82.60 % of respective basal and 77.02 % of respective basal and 90.64 % of respective basal and 94.78 % of respective basal and 95.64 % of respective basal and 137.22 % of respective basal
DOPAC in dialysate, MEAN (T4 h-T4 h 30): 94.89 % of respective basal
DOPAC in dialysate, individual animals (T4 h-T4 h 30): 107.03 % of respective basal and 83.51 % of respective basal and 92.76 % of respective basal and 82.75 % of respective basal and 83.92 % of respective basal and 79.63 % of respective basal and 104.47 % of respective basal and 127.87 % of respective basal
DOPAC in dialysate, MEAN (T5 h 30-T6 h): 101.76 % of respective basal
DOPAC in dialysate, individual animals (T5 h 30-T6 h): 132.77 % of respective basal and 85.32 % of respective basal and 85.38 % of respective basal and 97.98 % of respective basal and 88.27 % of respective basal and 108.01 % of respective basal and 92.66 % of respective basal and 127.03 % of respective basal
DOPAC in dialysate, MEAN (T5 h-T5 h 30): 93.03 % of respective basal
DOPAC in dialysate, individual animals (T5 h-T5 h 30): 75.53 % of respective basal and 93.40 % of respective basal and 85.99 % of respective basal and 86.97 % of respective basal and 95.22 % of respective basal and 104.27 % of respective basal and 122.75 % of respective basal
DOPAC in dialysate, MEAN (T6 h 30-T7 h): 100.53 % of respective basal
DOPAC in dialysate, individual animals (T6 h 30-T7 h): 119.00 % of respective basal and 87.46 % of respective basal and 83.16 % of respective basal and 92.30 % of respective basal and 79.40 % of respective basal
DOPAC in dialysate, MEAN (T6 h-T6 h 30): 96.87 % of respective basal
DOPAC in dialysate, individual animals (T6 h-T6 h 30): 117.46 % of respective basal and 79.52 % of respective basal and 81.29 % of respective basal and 39.89 % of respective basal and 77.98 % of respective basal and 106.17 % of respective basal and 94.72 % of respective basal and 131.51 % of respective basal
DOPAC in dialysate, MEAN (T-30 min-T0 (pre-dose)): 96.20 % of respective basal
DOPAC in dialysate, MEAN (T-1 h-T-30 min (pre-dose)): 98.03 % of respective basal
